According to PMC11089510 (Journal of Medicinal Chemistry, 2024):
Where two headings read alike, the source gives them in different places.

Experiments:
NUDT5 [1] = molecular target: T1, NUDT5 (Homo sapiens, UniProt Q9UKK9); assay: NUDT5 catalytic assay (AMP-Glo); type: biochemical; conditions: for NUDT5 inhibition: concentrations of up to 50 μM; for NUDT5 IC50: supplementary CSV
Description: (§1) Inhibition activities of the compounds were determined using AMP-Glo system (Promega). The compounds were diluted from 50 μM to 0 μM in a final reaction containing 20 mM HEPES, 100 mM NaCl, 0.5 mM TCEP, 1 mM MgCl2, and 0.1% BSA, pH 7.4. […] The final DMSO concentration was 1% for all reactions. […] The reactions were further incubated with 4 μL of the detection solution for 1 h at rt. Luminescence signals were then measured in a PHERAstar FSX plate reader. Experiments were done in triplicate sets, and data were analyzed by GraphPad Prism 9. Inhibitor dose–response data were normalized to reactions containing vehicle only (1% v/v DMSO, 100% activity) and reactions containing 500 nM TH5427 (6) (1% v/v DMSO, 0% activity). Data are represented as the mean ± SD of two independent biological replicates.

BT-474 cells = assay: Cell viability assay (CellTiter-Glo); type: cell-based; conditions: Homo sapiens, 72 h of incubation
Description: BT-474 cells were cultivated in DMEM containing 10% FBS at 37 °C and 5% CO2. […] Cells were trypsinized, counted, and diluted to 25,000 cells/mL in culture medium. 40 μL of cell suspension was seeded to each well, and plates were sealed with a breathable film and incubated for 72 h. Cell viability was determined using the CellTiter-Glo reagent following the manufacturer’s instructions (Promega). Luminescence signals were measured in a PHERAstar FS or FSX and analyzed by GraphPad Prism (v.9 or v.10). Data were normalized to DMSO.

recombinant human NUDT14 = molecular target: T2, recombinant human NUDT14 (Homo sapiens, UniProt O95848); assay: NUDT14 catalytic assay (AMP-Glo); type: biochemical
T2 sequence (O95848 1-222): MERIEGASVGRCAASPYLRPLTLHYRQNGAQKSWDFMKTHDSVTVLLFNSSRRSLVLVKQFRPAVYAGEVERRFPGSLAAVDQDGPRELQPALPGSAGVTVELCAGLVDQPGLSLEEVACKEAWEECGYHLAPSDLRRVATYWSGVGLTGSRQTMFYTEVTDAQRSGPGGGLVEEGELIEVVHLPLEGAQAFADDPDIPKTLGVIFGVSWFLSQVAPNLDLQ
Description: as §1

NUDT18 = molecular target: T3, NUDT18 (Homo sapiens, UniProt Q6ZVK8); assay: biochemical
T3 sequence (Q6ZVK8 1-323): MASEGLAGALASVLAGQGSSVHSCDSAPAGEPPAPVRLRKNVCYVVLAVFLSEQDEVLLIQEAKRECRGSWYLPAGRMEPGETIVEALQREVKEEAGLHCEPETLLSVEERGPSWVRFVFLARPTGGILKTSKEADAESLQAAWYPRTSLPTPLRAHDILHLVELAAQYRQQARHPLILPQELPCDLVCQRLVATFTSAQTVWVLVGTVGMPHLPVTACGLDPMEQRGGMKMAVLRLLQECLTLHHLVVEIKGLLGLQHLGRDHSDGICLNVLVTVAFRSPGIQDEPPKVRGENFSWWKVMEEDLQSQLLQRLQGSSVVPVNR

NUDT15 = molecular target: T4, NUDT15 (Homo sapiens, UniProt Q9NV35); assay: biochemical
T4 sequence (Q9NV35 1-164): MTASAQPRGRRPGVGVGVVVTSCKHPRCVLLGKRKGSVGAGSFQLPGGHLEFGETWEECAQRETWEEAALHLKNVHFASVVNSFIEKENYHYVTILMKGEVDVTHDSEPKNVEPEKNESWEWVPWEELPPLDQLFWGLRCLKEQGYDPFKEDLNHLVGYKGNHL

NUDT16 = NUDT16 (Homo sapiens, UniProt Q96DE0); assay: biochemical
Chain of NUDT16 (Q96DE0 whole entry): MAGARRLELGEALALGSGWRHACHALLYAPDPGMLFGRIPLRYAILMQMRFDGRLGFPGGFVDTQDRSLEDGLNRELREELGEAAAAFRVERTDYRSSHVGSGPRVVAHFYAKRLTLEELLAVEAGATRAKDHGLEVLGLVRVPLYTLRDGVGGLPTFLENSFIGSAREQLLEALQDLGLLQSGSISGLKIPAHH

NUDT16L1 = NUDT16L1 (Homo sapiens, UniProt Q9BRJ7); assay: biochemical
Chain of NUDT16L1 (Q9BRJ7 whole entry): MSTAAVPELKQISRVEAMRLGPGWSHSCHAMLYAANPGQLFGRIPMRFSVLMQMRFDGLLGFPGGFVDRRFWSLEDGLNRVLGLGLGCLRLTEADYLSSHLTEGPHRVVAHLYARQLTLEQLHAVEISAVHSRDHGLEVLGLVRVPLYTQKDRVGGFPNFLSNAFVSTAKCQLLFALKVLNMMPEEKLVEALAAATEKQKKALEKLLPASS

NUDT1 = NUDT1 (Homo sapiens, UniProt P36639); assay: biochemical
NUDT7 = NUDT7 (Homo sapiens, UniProt P0C024); assay: biochemical
Chain of NUDT7 (P0C024 whole entry): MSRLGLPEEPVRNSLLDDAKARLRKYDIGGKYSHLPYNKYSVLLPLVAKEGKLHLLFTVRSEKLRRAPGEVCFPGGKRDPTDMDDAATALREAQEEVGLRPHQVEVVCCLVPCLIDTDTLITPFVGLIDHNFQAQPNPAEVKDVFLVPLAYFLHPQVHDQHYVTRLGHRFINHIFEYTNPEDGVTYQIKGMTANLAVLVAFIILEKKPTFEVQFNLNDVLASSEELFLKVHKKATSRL

NUDT9 = molecular target: T5, NUDT9 (Homo sapiens, UniProt Q9BW91); assay: biochemical
T5 sequence (Q9BW91 1-350): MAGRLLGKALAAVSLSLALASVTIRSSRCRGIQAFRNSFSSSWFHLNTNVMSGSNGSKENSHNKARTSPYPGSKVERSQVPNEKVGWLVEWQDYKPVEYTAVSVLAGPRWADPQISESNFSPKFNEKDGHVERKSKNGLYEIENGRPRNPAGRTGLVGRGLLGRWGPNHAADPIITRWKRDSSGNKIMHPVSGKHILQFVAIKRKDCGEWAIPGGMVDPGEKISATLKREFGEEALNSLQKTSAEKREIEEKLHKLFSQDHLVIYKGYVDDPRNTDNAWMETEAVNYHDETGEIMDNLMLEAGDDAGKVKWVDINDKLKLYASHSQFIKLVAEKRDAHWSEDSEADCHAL

NUDT17 = molecular target: T6, NUDT17 (Homo sapiens, UniProt P0C025); assay: biochemical
T6 sequence (P0C025 1-328): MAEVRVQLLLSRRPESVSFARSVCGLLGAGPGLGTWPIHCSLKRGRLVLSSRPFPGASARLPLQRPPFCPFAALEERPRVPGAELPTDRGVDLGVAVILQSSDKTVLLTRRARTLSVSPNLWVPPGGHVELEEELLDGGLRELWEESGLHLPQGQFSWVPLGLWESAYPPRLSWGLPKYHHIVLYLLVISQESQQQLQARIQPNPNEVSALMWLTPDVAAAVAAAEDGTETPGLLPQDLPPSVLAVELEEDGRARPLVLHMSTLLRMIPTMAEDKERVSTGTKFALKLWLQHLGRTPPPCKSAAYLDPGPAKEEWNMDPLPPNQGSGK

NUDT12 = NUDT12 (Homo sapiens, UniProt Q9BQG2); assay: biochemical
Chain of NUDT12 (Q9BQG2 whole entry): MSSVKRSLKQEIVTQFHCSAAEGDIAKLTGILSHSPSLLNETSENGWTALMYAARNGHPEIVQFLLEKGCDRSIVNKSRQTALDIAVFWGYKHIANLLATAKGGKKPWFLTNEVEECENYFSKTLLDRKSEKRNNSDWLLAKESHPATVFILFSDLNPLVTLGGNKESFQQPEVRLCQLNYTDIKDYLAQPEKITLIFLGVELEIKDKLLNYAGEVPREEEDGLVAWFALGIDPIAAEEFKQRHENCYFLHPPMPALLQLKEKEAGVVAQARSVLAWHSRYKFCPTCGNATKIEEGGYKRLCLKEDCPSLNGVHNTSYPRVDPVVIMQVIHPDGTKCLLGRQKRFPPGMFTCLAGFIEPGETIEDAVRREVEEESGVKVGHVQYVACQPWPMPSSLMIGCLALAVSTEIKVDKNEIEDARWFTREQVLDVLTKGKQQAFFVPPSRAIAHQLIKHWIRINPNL

[2] = molecular target: T7, purified human NUDT14 protein (Homo sapiens, UniProt O95848); assay: biochemical
T7 construct: 6xHis tag followed by TEV site (N, cleaved yes); made in house; host or cells: Escherichia coli (DE3)
T7 sequence (O95848 1-222): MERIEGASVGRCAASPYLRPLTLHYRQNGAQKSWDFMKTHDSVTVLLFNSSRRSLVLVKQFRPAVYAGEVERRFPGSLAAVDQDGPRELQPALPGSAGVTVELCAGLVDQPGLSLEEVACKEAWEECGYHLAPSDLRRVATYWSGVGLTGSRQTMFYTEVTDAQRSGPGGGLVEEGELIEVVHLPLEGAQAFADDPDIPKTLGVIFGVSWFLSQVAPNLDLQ

NUDT5 [3] = molecular target: T1, NUDT5; assay: biochemical; design: 6xHis tag followed by TEV site (N, cleaved yes); made in house; host or cells: Escherichia coli (DE3)
[4] = molecular target: HiBiT-NUDT14 in intact HEK293 cells (Homo sapiens, UniProt O95848); assay: HiBiT-NUDT14 cellular thermal shift assay (CETSA); type: cell-based
Description: The Nano-Glo HiBiT lytic detection system was used following the manufacturer’s instructions (Promega). In brief, 400,000 HEK293 cells/mL were reverse-transfected with N-terminal HiBiT tagged NUDT14 using FuGENE transfection reagent (Promega). After 24 h of incubation, cells were trypsinized and resuspended at 400,000 cells/mL in assay medium. The cells were divided into compound and untreated (DMSO) groups and treated accordingly. Ten μL of cells were seeded into each well in a 384-well white PCR plate and incubated for 1 h. After incubation, the samples were heated in a PCR thermocycler at the desired temperature gradient. The plate was allowed to stand for 5 min at rt, and 10 μL of Nano-Glo HiBiT lytic mix was added into each well. The signals were measured in a PHERAstar FSX and analyzed by GraphPad Prism (v.9 or v.10).

[5] = molecular target: NanoLuc-NUDT5 in HEK293 cells (Homo sapiens, UniProt Q9UKK9); assay: NUDT5 live-cell NanoBRET target engagement assay; type: cell-based; conditions: 2.5 nM CBH-004 tracer, 2 h
Description: Donor and acceptor signals were measured in a PHERAstar FSX or FS plate reader and analyzed by GraphPad Prism (v.9 or v.10). […] Data were then normalized to DMSO.

endogenous NUDT5 = endogenous NUDT5 (Homo sapiens, UniProt Q9UKK9); assay: Affinity pull-down with Western blot for NUDT5; type: binding; conditions: affinity matrix, cell lysate
Description: When reaching about 80% confluency, cells were harvested, washed with PBS, and frozen at −80 °C. Lysates were generated by adding 3× pellet volume of Buffer A (50 mM tris pH 7.5, 0.8% v/v NP-40, 5% v/v glycerol, 1.5 mM MgCl2, 100 mM NaCl, 25 mM NaF, 1 mM Na3VO4, 1 mM PMSF, 1 mM DTT, 10 μg/mL TLCK, 1 μg/mL Leupeptin, 1 μg/mL Aprotinin, 1 μg/mL soybean trypsin) supplemented with 1 μL/mL of benzonase. To facilitate lysis, crude lysate was drawn 10 times with a needle and incubated for 30 min on ice before clearing by centrifugation.
Affinity matrices were washed 4 times with 1 mL Buffer A, and proteins were eluted 2× with 50 μL of 2× Laemmli buffer containing 25 mM DTT in PBS for 5 min at 95 °C.

[6] = molecular target: the molecule itself; assay: crystal structure; NUDT14 (20 mg/mL) cocrystallised with compound 9 at a molar ratio of 1:5; 0.2 M MgCl2, 0.1 M bis-tris pH 6.5, 25% PEG3350; sitting drop, 4 °C; dimer of chains A and B
[7] = read-out: NUDT5 IC50, AMP-Glo, 1 nM NUDT5, 10 μM ADPr, 20 min, rt
[8] = 1 nM NUDT14, 10 μM ADPr, 1 h, rt

Molecule: C=CC(=O)N1CCC[C@@H](n2nc(-c3ccc(Oc4ccccc4)cc3)c3c(N)ncnc32)C1 [Compound 1, ibrutinib, reference compound]
- IC50 (NUDT5 [1]; [7]): 837 ± 329 nM
- IC50 (BT-474 cells): 27 ± 11 nM
- IC50 (recombinant human NUDT14; [8]): 990 ± 110 nM

Molecule: C=CC(=O)N1CCC[C@@H](n2nc(-c3ccc(Oc4ccccc4)cc3)c3c(N)ncnc32)C1 [Compound 1, ibrutinib]
- Kd (NUDT18): > 100000 nM
- Kd (NUDT15): > 100000 nM
- Kd (NUDT16): > 100000 nM
- Kd (NUDT16L1): > 100000 nM
- Kd (NUDT1): 3500 ± 280 nM
- Kd (NUDT7): > 100000 nM
- Kd (NUDT9): > 100000 nM
- Kd (NUDT17): > 100000 nM
- Kd (NUDT12): > 100000 nM
- Kd [2]: 1900 ± 500 nM
- Kd (NUDT5 [3]): 209 ± 62 nM

Molecule: CC#CC(=O)N1CCC[C@H]1c1nc(-c2ccc(C(=O)Nc3ccccn3)cc2)c2c(N)nccn12 [Compound 2, acalabrutinib, reference compound]
- NUDT5 inhibition (NUDT5 [1]): did not show any inhibition
- NUDT5 IC50 (NUDT5 [1]; AMP-Glo): not active

Molecule: CC#CC(=O)N[C@H]1CCCN(c2c(F)cc(C(N)=O)c3[nH]c(C)c(C)c23)C1 [Compound 3, branebrutinib, reference compound]
- NUDT5 inhibition (NUDT5 [1]): did not show any inhibition
- NUDT5 IC50 (NUDT5 [1]; AMP-Glo): not active

Molecule: Cn1c(=O)c2c(nc(N3CCNCC3)n2Cc2nnc(-c3ccc(Cl)c(Cl)c3)o2)n(C)c1=O [Compound 6, TH5427]
- NUDT14 stabilisation compared to DMSO [4]: does not stabilise NUDT14
- EC50 [5]: 4 ± 1 nM

Molecule: Cn1c(=O)c2c(nc(N3CCN(CCCCN)CC3)n2Cc2nnc(-c3ccc(Cl)c(Cl)c3)o2)n(C)c1=O.O=C(O)C(F)(F)F [Compound 7, 4-(4-(7-((5-(3,4-Dichlorophenyl)-1,3,4-oxadiazol-2-yl)methyl)-1,3-dimethyl-2,6-dioxo-2,3,6,7-tetrahydro-1H-purin-8-yl)piperazin-1-yl)butan-1-aminium Trifluoroacetate]
- binding to endogenous NUDT5 (pull-down, Western blot) (endogenous NUDT5): retained binding

Molecule: Cn1nc(-c2ccc(Oc3ccccc3)cc2)c2c(N)ncnc21 [Compound 10, 1-Methyl-3-(4-phenoxyphenyl)-1H-pyrazolo[3,4-d]pyrimidin-4-amine]
- IC50 (recombinant human NUDT14; [8]): 263 ± 31 nM

Molecule: Nc1ncnc2[nH]nc(-c3ccc(Oc4ccccc4)cc3)c12 [Compound 11, 3-(4-Phenoxyphenyl)-1H-pyrazolo[3,4-d]pyrimidin-4-amine]
- IC50 (recombinant human NUDT14; [8]): 519 ± 84 nM

Molecule: C=CC(=O)N1CC=C(c2nn(C3CCN(C)CC3)c3ncnc(N)c23)CC1 [Compound 12, 1-(4-(4-Amino-1-(1-methylpiperidin-4-yl)-1H-pyrazolo[3,4-d]pyrimidin-3-yl)-3,6-dihydropyridin-1(2H)-yl)prop-2-en-1-one]
- IC50 (NUDT5 [1]; [7]): > 50000 nM
- NUDT5 IC50 (NUDT5 [1]; AMP-Glo): not active
- IC50 (recombinant human NUDT14; [8]): > 50000 nM
- NUDT14 IC50 (recombinant human NUDT14; supplementary CSV): not active

Molecule: C=CC(=O)N1CCC=C(c2nn(C3CCN(C)CC3)c3ncnc(N)c23)C1 [Compound 13, 1-(5-(4-Amino-1-(1-methylpiperidin-4-yl)-1H-pyrazolo[3,4-d]pyrimidin-3-yl)-3,6-dihydropyridin-1(2H)-yl)prop-2-en-1-one]
- IC50 (NUDT5 [1]): > 50000 nM
- NUDT5 IC50 (NUDT5 [1]; AMP-Glo): not active
- IC50 (recombinant human NUDT14; [8]): 3720 ± 190 nM

Molecule: C=CC(=O)NCc1ccc(-c2nn(C3CCN(C)CC3)c3ncnc(N)c23)cc1 [Compound 14, N-(4-(4-Amino-1-(1-methylpiperidin-4-yl)-1H-pyrazolo[3,4-d]pyrimidin-3-yl)benzyl)acrylamide]
- IC50 (recombinant human NUDT14; [8]): 1640 ± 140 nM

Molecule: C=CC(=O)N1CCC(c2nn(C3CCN(C)CC3)c3ncnc(N)c23)CC1 [Compound 15, 1-(4-(4-Amino-1-(1-methylpiperidin-4-yl)-1H-pyrazolo[3,4-d]pyrimidin-3-yl)piperidin-1-yl)prop-2-en-1-one]
- IC50 (NUDT5 [1]): > 50000 nM
- NUDT5 IC50 (NUDT5 [1]; AMP-Glo): not active
- IC50 (recombinant human NUDT14; [8]): > 50000 nM
- NUDT14 IC50 (recombinant human NUDT14; [8]): inactive

B1: NUDT14 (enzyme, human, UniProt O95848 1-222, looked up)
chain: MERIEGASVGRCAASPYLRPLTLHYRQNGAQKSWDFMKTHDSVTVLLFNSSRRSLVLVKQFRPAVYAGEVERRFPGSLAAVDQDGPRELQPALPGSAGVTVELCAGLVDQPGLSLEEVACKEAWEECGYHLAPSDLRRVATYWSGVGLTGSRQTMFYTEVTDAQRSGPGGGLVEEGELIEVVHLPLEGAQAFADDPDIPKTLGVIFGVSWFLSQVAPNLDLQ
- stoichiometry N [6]: 2
